Here are results for two molecules from article PMC5187391, “Structural mechanism for the arginine sensing and regulation of CASTOR1 in the mTORC1 signaling pathway” (Cell Discovery, 2016).

Substitutions are numbered along the chain they refer to.

Data set [1] concerns the target T1, CASTOR1 (Homo sapiens, UniProt Q8WTX7).
T1 construct: full-length human CASTOR1, N-terminal 6×His-tag (homodimer)
T1 sequence (Q8WTX7 1-329): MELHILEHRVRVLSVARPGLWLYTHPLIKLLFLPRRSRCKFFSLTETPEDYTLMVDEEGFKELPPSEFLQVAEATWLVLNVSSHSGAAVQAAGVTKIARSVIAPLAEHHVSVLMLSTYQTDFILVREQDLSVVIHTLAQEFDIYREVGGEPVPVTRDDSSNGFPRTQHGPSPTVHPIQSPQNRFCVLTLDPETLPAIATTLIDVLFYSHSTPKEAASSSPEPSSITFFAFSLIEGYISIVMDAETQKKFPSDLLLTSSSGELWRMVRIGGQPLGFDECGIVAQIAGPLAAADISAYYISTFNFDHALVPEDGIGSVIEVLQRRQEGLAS
Nature of the data set: ITC. It counts as binding.

The target of data set [2] is T2, CASTOR1 (Homo sapiens, UniProt Q8WTX7, S111A).
T2 construct: full-length human CASTOR1, N-terminal 6×His-tag
T2 sequence (Q8WTX7 1-329 S111A): T1 sequence (Q8WTX7 1-329) with S111A
Nature of the data set: ITC. The data set is classed as binding.

Data set [3] concerns the molecule itself. Put plainly: SEC-MALS; 25 °C; about 400 μg protein injected per run; 15 mM Tris-HCl, pH 8.0, 150 mM NaCl, 2 mM DTT; WTC-015S5 column.
In data set [4] the target is T3, Full-length human Mios with an N-terminal GST tag (human, UniProt Q9NXC5 1-875).
T3 construct: Mios, human, full length, in pGEX4T-1; the methods describe only GST-Mios for the Ni2+-NTA pull-down; also called GST-Mios; purified Mios protein; not shown: GST, N-terminal, kept
T3 sequence (looked up): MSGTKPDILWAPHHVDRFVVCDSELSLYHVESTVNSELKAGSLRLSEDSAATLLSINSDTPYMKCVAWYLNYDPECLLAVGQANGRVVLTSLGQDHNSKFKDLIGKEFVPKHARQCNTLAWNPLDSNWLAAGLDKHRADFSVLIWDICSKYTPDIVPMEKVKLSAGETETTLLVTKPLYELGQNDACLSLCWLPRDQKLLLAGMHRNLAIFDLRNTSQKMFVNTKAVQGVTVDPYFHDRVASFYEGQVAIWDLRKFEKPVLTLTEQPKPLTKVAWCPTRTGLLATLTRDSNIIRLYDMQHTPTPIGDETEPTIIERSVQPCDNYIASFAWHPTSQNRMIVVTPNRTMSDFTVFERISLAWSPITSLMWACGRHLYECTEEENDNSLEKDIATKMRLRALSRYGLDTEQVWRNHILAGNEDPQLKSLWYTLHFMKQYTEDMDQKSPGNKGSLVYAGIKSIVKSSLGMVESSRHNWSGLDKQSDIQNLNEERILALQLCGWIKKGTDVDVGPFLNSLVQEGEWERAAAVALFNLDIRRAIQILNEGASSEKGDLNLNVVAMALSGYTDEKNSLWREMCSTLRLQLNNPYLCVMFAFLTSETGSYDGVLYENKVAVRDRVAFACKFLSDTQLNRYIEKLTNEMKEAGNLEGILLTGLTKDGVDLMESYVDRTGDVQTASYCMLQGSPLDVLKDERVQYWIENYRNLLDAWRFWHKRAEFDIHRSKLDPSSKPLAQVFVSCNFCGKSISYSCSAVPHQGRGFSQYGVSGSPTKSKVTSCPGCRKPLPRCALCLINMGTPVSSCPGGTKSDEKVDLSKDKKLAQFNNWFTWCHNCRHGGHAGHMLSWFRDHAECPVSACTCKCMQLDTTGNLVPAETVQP
Put plainly: pull-down; Ni2+-NTA column pull-down: His-CASTOR1 pre-immobilised on the Ni2+-NTA column, GST-Mios (or another purified GATOR2 subunit) added at 4 °C; wash 25 mM Tris, pH 8.0, 300 mM NaCl, 20 mM imidazole; elution with 500 mM imidazole; SDS-PAGE and Coomassie Blue staining. The following applies: both partners purified.

Broadly, the Kd is a measure of binding affinity in units of concentration. On to `N=C(N)NCCC[C@H](N)C(=O)O` [arginine], for which the Kd in data set [1] stood at 2.23 µM; in data set [2], 9.68 µM.

B1: Full-length human CASTOR1, wild type, N-terminal 6xHis-tag (natural protein, UniProt Q8WTX7 1-329, looked up)
chain: T1 sequence (Q8WTX7 1-329)
notes: CASTOR1, human, full length (residues 1-329 by the domain limits printed in the results); cDNA chemically synthesized, in pET28a; Dimer in the crystal and by SEC-MALS; also called WT CASTOR1; His-CASTOR1; source: E. coli BL21(DE3), purified (Ni2+-NTA, Superdex 200 gel filtration); not shown: His6, N-terminal, kept
By stoichiometry N is commonly meant a count of units in the complex or per binding partner. For B1, the “stoichiometry N” value in data set [3] was 2. Besides, the binding result in data set [4] was “binds”.
